In article PMC8159961, “Exploring protein hotspots by optimized fragment pharmacophores” (Nature Communications, 2021):
Where two headings read alike, the source gives them in different places.

Legend:
COVID-19 = system: COVID-19; set-up: method as in PMID 33264556; details: trial discontinued in July 2020; cited from earlier work
human 5-HT1A receptor = biological target: T1, human 5-HT1A receptor (Homo sapiens, UniProt P08908); assay: GPCR radioligand binding assay, [3H]-8-OH-DPAT displacement, HEK293 membranes
T1 construct: expressed in transfected cells
T1 sequence (P08908 1-422): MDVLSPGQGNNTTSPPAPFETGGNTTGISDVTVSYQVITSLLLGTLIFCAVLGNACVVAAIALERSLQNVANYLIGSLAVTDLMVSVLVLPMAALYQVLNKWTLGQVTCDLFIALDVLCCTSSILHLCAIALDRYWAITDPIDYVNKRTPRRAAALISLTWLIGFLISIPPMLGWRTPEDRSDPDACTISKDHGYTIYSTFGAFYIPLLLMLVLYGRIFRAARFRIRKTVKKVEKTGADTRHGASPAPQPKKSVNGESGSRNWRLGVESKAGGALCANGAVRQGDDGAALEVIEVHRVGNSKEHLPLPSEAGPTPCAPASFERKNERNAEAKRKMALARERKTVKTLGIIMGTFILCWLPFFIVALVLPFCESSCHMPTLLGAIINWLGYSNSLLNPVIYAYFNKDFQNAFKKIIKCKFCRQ

bovine factor Xa = biological target: T2, bovine factor Xa (Bos taurus, UniProt P00743); assay: Protease inhibitory assay, chromogenic substrate S-2222; type: biochemical; details: 1 = hit, 0 = no hit; screening at 200 µM
T2 construct: bovine factor Xa, Chromogenix, 2 nkat/mL; purchased Chromogenix

[1] = biological target: T3, SARS-CoV-2 NSP3 macrodomain (Severe acute respiratory syndrome coronavirus 2, UniProt P0DTD1); assay: NSP3 macrodomain HTRF assay, displacement of ADP-ribose-conjugated biotin peptide; type: binding; details: HTRF assay, up to 5 mM concentration
recombinant SETD2 = biological target: T4, recombinant SETD2 (Homo sapiens, UniProt Q9BYW2); assay: SETD2 Chemiluminescence assay (H3K36 tri-methylation); type: biochemical; details: 1 = hit, 0 = no hit
T4 construct: purchased BPS Bioscience 52060
T4 sequence (Q9BYW2 1418-1714 limits assumed): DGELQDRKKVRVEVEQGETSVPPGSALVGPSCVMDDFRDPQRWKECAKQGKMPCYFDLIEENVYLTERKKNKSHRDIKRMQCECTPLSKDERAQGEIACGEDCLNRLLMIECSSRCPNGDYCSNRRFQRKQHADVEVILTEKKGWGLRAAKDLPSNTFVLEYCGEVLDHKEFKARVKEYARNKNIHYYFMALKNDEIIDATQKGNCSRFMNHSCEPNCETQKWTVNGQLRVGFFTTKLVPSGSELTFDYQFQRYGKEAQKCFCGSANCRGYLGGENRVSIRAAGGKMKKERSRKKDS

[2] = biological target: T3, SARS-CoV-2 NSP3 macrodomain; assay: X-ray fragment screening (XChem, crystal soaking); type: binding
human 5-HT6 receptor = biological target: T5, human 5-HT6 receptor (Homo sapiens, UniProt P50406); assay: GPCR radioligand binding assay, [3H]-LSD displacement, HEK293 membranes
T5 construct: expressed in transfected cells

human 5-HT7b receptor = biological target: T6, human 5-HT7b receptor (Homo sapiens, UniProt P34969); assay: GPCR radioligand binding assay, [3H]-5-CT displacement, HEK293 membranes
T6 construct: expressed in transfected cells

SARS-CoV-2 = assay: microbe, parasite or virus in culture; type: cell-based; details: infected Vero E6 cells
human thrombin = biological target: T7, human thrombin (Homo sapiens, UniProt P00734); assay: Protease inhibitory assay, chromogenic substrate S-2238; type: biochemical; details: 1 = hit, 0 = no hit; screening at 200 µM
T7 construct: human thrombin; purchased Sigma-Aldrich

[3] = 1 = hit, 0 = no hit, tested at 10 µM, hit = 50% or stronger inhibition

T6 sequence (P34969 1-432): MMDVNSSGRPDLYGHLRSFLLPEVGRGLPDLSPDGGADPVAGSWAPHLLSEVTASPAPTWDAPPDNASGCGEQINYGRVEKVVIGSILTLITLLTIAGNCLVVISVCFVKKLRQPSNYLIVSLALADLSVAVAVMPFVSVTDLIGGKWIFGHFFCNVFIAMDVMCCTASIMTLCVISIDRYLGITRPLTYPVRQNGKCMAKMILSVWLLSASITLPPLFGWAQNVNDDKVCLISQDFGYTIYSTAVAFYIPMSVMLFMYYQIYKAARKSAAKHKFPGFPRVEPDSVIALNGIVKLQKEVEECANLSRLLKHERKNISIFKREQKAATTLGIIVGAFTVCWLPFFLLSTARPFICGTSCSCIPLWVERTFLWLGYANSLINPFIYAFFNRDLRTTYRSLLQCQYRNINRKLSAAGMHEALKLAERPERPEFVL
T5 sequence (P50406 whole entry): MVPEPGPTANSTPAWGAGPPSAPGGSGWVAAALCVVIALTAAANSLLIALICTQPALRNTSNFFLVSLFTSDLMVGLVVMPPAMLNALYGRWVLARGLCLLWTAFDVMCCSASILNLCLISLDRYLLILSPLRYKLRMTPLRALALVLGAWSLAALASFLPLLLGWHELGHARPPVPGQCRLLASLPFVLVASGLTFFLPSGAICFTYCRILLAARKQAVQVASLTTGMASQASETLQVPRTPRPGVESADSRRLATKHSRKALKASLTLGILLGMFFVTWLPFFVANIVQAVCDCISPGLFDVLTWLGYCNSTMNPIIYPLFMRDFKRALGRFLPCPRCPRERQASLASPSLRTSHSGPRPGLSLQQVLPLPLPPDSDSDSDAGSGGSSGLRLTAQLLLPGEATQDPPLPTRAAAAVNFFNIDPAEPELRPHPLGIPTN
T2 sequence (P00743 234-492 limits assumed): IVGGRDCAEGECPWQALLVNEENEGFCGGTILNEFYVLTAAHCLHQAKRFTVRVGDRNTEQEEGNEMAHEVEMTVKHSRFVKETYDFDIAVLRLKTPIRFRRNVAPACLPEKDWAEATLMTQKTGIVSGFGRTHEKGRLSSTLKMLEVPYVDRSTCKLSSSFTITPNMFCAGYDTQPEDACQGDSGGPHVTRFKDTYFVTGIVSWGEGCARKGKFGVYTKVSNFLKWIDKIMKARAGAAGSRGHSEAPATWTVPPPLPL
T2 sequence (P00743 41-180 partner limits assumed): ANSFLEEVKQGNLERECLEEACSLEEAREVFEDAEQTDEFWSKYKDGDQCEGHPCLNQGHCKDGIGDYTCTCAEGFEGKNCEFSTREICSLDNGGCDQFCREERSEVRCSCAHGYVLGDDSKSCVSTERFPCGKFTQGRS

Question: Which “clinical trial outcome against COVID-19” value (COVID-19) does the source give for lopinavir/ritonavir here?
Answer: ineffectiveness

Question: Which inhibition at 10 µM (human 5-HT1A receptor; 10 µM, read-out: 5-HT1A % Inhibition by plate position) does the source give for `c1cnc2ncccc2c1` [SX003] here?
Answer: 22%

Question: What about the “experimental hit status, 5-HT1” value (human 5-HT1A receptor; [3]) of the same compound?
Answer: 0

Question: What about the inhibition at 10 µM (human 5-HT1A receptor; 5-HT1A, average of exp_1 and exp_2, read-out: %inh 5-HT1A average) of the same compound?
Answer: 22%

Question: And the inhibition at 10 µM (human 5-HT1A receptor; 5-HT1A, average, values below 0 and above 100% were set as 0 and 100, read-out: %inh 5-HT1A corrected*)?
Answer: 22%

Question: And the inhibition at 10 µM (human 5-HT1A receptor; 5-HT1A, replicate exp_1, read-out: %inh 5-HT1A exp_1)?
Answer: 24%

Question: And the inhibition at 10 µM (human 5-HT1A receptor; 5-HT1A, replicate exp_2, read-out: %inh 5-HT1A exp_2)?
Answer: 21%

Question: What about the “experimental hit status, Factor Xa” value (bovine factor Xa) of the same compound?
Answer: 0

Question: And the “activity in the NSP3 enzyme assay (in words)” value [1]?
Answer: no activity

Question: And the “experimental hit status, SETD2” value (recombinant SETD2)?
Answer: 0

Question: What about the “X-ray screen result, binding site” value [2] of the same compound?
Answer: identified in the active site

Question: What about the inhibition at 10 µM (human 5-HT6 receptor; 10 µM, read-out: 5-HT6 % Inhibition by plate position) of the same compound?
Answer: 48%

Question: What about the “experimental hit status, 5-HT6” value (human 5-HT6 receptor; [3]) of the same compound?
Answer: 0

Question: And the inhibition at 10 µM (human 5-HT6 receptor; 5-HT6, average of exp_1 and exp_2, read-out: %inh 5-HT6 average)?
Answer: 48%

Question: What about the inhibition at 10 µM (human 5-HT6 receptor; 5-HT6, average, values below 0 and above 100% were set as 0 and 100, read-out: %inh 5-HT6 corrected*) of the same compound?
Answer: 48%

Question: And the inhibition at 10 µM (human 5-HT6 receptor; 5-HT6, replicate exp_1, read-out: %inh 5-HT6 exp_1)?
Answer: 55%

Question: And the inhibition at 10 µM (human 5-HT6 receptor; 5-HT6, replicate exp_2, read-out: %inh 5-HT6 exp_2)?
Answer: 41%

Question: What about the inhibition at 10 µM (human 5-HT7b receptor; 10 µM, read-out: 5-HT7 % Inhibition by plate position) of the same compound?
Answer: 34%

Question: What about the “experimental hit status, 5-HT7” value (human 5-HT7b receptor; [3]) of the same compound?
Answer: 0

Question: What about the inhibition at 10 µM (human 5-HT7b receptor; 5-HT7, average of exp_1 and exp_2, read-out: %inh 5-HT7 average) of the same compound?
Answer: 34%

Question: And the inhibition at 10 µM (human 5-HT7b receptor; 5-HT7, average, values below 0 and above 100% were set as 0 and 100, read-out: %inh 5-HT7 corrected*)?
Answer: 34%

Question: What about the inhibition at 10 µM (human 5-HT7b receptor; 5-HT7, replicate exp_1, read-out: %inh 5-HT7 exp_1) of the same compound?
Answer: 32%

Question: What about the inhibition at 10 µM (human 5-HT7b receptor; 5-HT7, replicate exp_2, read-out: %inh 5-HT7 exp_2) of the same compound?
Answer: 36%

Question: What about the “antiviral activity in the cellular assay (in words)” value (SARS-CoV-2) of the same compound?
Answer: inactive in cells

Question: And the “experimental hit status, Thrombin” value (human thrombin)?
Answer: 0
